The source of these data is patent EP0209430A2, “L-di or tripeptides possessing a biological activity for use in human and veterinary medicines, process for their obtention and medicines containing them” (INSTITUT DE RECHERCHES CHIMIQUES ET BIOLOGIQUES APPLIQUEES …, priority 1985, dated 1987).

What all share (assay): MIC (C.M.I.) in agar medium
Format in all cases: cell-based

Experiment [1] has as its system E. Coli. An excerpt: (§1) Par exemple, nous décrivons les C.M.I. (concentrations minimales inhibitrices) en µg/ml, obtenues en milieu gélosé pour un inoculum de 10^4 à 10^5 bactéries par millilitre, du composé B 1067.
Experiment [2] deals with Klebsiella p. The conditions noted are these: Klebsiella p. La 433, inoculum 10^4 à 10^5 bacteria per ml.
Text: as §1

Experiment [3] deals with S. aureus. Particulars: Staphylococcus aureus.
Text: as §1

Experiment [4] deals with S. faecalis. Particulars: Enterococcus faecalis, ATCC14508, S. faecalis ATCC 14508, inoculum 10^4 à 10^5 bacteria per ml.
Text: as §1

Experiment [5] concerns Salmonella E. The conditions noted are these: Salmonella E. CNCM 57.29, inoculum 10^4 à 10^5 bacteria per ml.
Text: as §1

Experiment [6] deals with Serratia. Particulars: Serratia 22.579, inoculum 10^4 à 10^5 bacteria per ml.
Text: as §1

Converted amounts (≈) assume the structure as drawn.

The term MIC denotes the smallest concentration in the dilution series that meets the test's criterion for growth inhibition. Low readings indicate greater potency, high ones weaker potency. As for `C[C@H](N)C(=O)N[C@@H](C)P(=O)(O)O` [B 1067, Selde l'amino-2-(hydroxyméthyl)-2-propanediol-1,3 avec l'acide L-Alanyl-L-(amino-1)-éthylphosphonique], in experiment [1] (E. Coli CNCM 53.126, inoculum 10^4 à 10^5 bacteria per ml), the C.M.I. is listed as 0,25 µg/ml. For the same compound, the MIC in experiment [1] (Escherichia coli, E. Coli CNCM 54.8, inoculum 10^4 à 10^5 bacteria per ml) came out at 0.25 mg/L (≈ 1.27 µM); in experiment [2] it was 16 mg/L (≈ 81.6 µM); in experiment [3] (ATCC63, S. aureus ATCC 63.58 P, inoculum 10^4 à 10^5 bacteria per ml), 32 mg/L (≈ 163 µM); in experiment [3] (ATCC29213, S. aureus ATCC 29213, inoculum 10^4 à 10^5 bacteria per ml) it was 8 mg/L (≈ 40.8 µM); in experiment [3] (S. aureus CNCM 52.149, inoculum 10^4 à 10^5 bacteria per ml), 32 mg/L (≈ 163 µM); in experiment [4] it was 32 mg/L (≈ 163 µM). For the same compound, the MIC in experiment [5] was 1 mg/L (≈ 5.1 µM); in experiment [6], 32 to 64 mg/L (≈ 163 to 326 µM).
